Reference: the supplement of paper PMC10307832

How the values were obtained:
Assay in all cases: relative viability (nuclei count vs DMSO), 5 days (fraction); higher = more cells survive
QS11 + Tozasertib = compound: C1CC2=C(C1)C=C(C=C2)OC3=NC(=C4C(=N3)N(C=N4)CC5=CC=C(C=C5)C6=CC=CC=C6)N[C@@H](CC7=CC=CC=C7)CO [QS11] + Cc1cc(Nc2cc(N3CCN(C)CC3)nc(Sc3ccc(NC(=O)C4CC4)cc3)n2)n[nH]1 [Tozasertib] (partner 0.1 µM)
Summary of the method: (§1)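 The day after seeding in 1536-well plates, lung cancer cell lines were treated by pin tool with a single drug, or with a fixed anchor-drug dose together with five library-drug doses (not always all listed) in √10 steps. After 5 days, a combined fix-and-stain solution (final 0.05% Triton X-100, 1% formaldehyde, 1 ug/ml Hoechst) was added. Nuclei counted on 4× images gave relative viability as treated counts over vehicle counts, reported as the median of duplicate plates.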

[1] = compound: C[As](C)SC[C@H](NC(=O)CC[C@H](N)C(=O)O)C(=O)NCC(=O)O [Darinaparsin] + CCNC(=O)c1noc(-c2cc(C(C)C)c(O)cc2O)c1-c1ccc(CN2CCOCC2)cc1 [Luminespib] (partner 0.01 µM)
Summary of the method: as §1

[2] = compound: C[As](C)SC[C@H](NC(=O)CC[C@H](N)C(=O)O)C(=O)NCC(=O)O [Darinaparsin] + C[C@]1(O)C[C@@H](c2nc(-c3ccc4ccc(-c5ccccc5)nc4c3)c3c(N)nccn32)C1 [Linsitinib] (partner 1 µM)
Summary of the method: as §1

Darinaparsin + AZD7762 = compound: C[As](C)SC[C@H](NC(=O)CC[C@H](N)C(=O)O)C(=O)NCC(=O)O [Darinaparsin] + NC(=O)Nc1cc(-c2cccc(F)c2)sc1C(=O)N[C@H]1CCCNC1 [AZD7762] (partner 0.2 µM)
Summary of the method: as §1

LCLC-97TM1 was tested, and the relative viability (QS11 + Tozasertib; first compound 0.08 µM) was 0.2, the relative viability (QS11 + Tozasertib; first compound 0.253 µM) was 0.242 and the relative viability (QS11 + Tozasertib; first compound 2.53 µM) was 0.199. For the same cell line, the relative viability (QS11 + Tozasertib; first compound 8 µM) was 0.146, the relative viability ([1]; first compound 0.08 µM) was 0.939 and the relative viability ([1]; first compound 0.8 µM) was 0.659. It also gave a relative viability ([1]; first compound 2.53 µM) of 0.699, a relative viability ([1]; first compound 8 µM) of 0.888 and a relative viability ([2]; first compound 0.08 µM) of 0.162. It also gave a relative viability ([2]; first compound 0.8 µM) of 0.164, a relative viability ([2]; first compound 2.53 µM) of 0.173 and a relative viability ([2]; first compound 8 µM) of 0.178. The relative viability (Darinaparsin + AZD7762; first compound 0.08 µM) was 0.128, the relative viability (Darinaparsin + AZD7762; first compound 0.8 µM) was 0.247 and the relative viability (Darinaparsin + AZD7762; first compound 2.53 µM) was 0.314. The relative viability (Darinaparsin + AZD7762; first compound 8 µM) was 0.254.
